Where a name gives a salt, the structure may show the parent alone.
Test system: mice
Test: motor coordination in the rotarod test
Type: in vivo
Details: 15 mg/kg i.p.; 6, 18 and 24 rpm
Source text: The neurotoxicity of the new compounds can result in impaired motor functions of the experimental animals, which may subsequently cause false interpretation of the results of in vivo tests. Understandably, neurotoxicity is also the frequent reason for eliminating the tested compound from further studies. To minimize that risk, we investigated the influence of our lead structures on motor coordination in the rotarod test, which is the classical test used for assessing motor coordination and balance in rodents. It provides a quick and simple estimation of neuromuscular coordination. […] The time spent on the rotarod apparatus was 60 s for each control mouse.
The test was carried out on the semiautomatic rotarod apparatus (Rotarod apparatus Panlab/Harvard Apparatus, LE 8200, Spain) according to the method previously described in the literature.[85] The mice were trained for 3 days on the rod rotating at a constant speed of 18 rotations per minute (rpm). During each training session, the animals were placed on the rod for 3 min with an unlimited number of trials. On the test day (24 h after the final training trial), 30 min before the rotarod test, the mice were pretreated (i.p.) with the test compound (15 mg/kg). Then, the animals were tested on the rotarod revolving at 6, 18, and then 24 rpm. Motor impairments, defined as the inability to remain on the rotating rod for 1 min, were measured at each speed.

SMILES: N#Cc1ccc(-c2ccc(OCCCN3CCC(c4ccncc4)CC3)cc2)cc1 [Compound 12, 4′-(3-(4-(Pyridin-4-yl)piperidin-1-yl)propoxy)-[1,1′-biphenyl]-4-carbonitrile Oxalate]
- influence on motor coordination, time on rotarod: slightly affected motor coordination, but the effect was not statistically significant
